# Data reported in patent US20250034185A1 (priority 2021, published 2025).
# Assays:
# [1] = Pharmacokinetic study 4: SP isomer, RP isomer and D-amino acid prodrug, IV and PO, rats; assay type: in vivo; conditions: rat; for conversion to PLP in the plasma: IV (and PO)
# Text: The goal of the study was to compare the pharmacokinetic (PK) profiles of the S-isomer (16i) and the R-isomer (16iii) at the phosphorus center, and to assess the effect of using the D-amino acid (16i with SP and RP isomers) on PK profile.
# In order to isolate the effects of the administered agents on PL and PLP levels, the basal levels of both PL and PLP subtracted from the measured concentrations. Baseline subtraction was accomplished by subtracting pre-dose concentrations of either PL or PLP from the subsequent values in the time course.
# Formulation—Prodrugs 16i (SP isomer), 16i (RP isomer) and 16i′ (16i with D-amino acid racemate) were formulated in phosphate buffered saline (PBS) as a homogenous solution on the day of dosing.
# (§1) Animals and group—19 CD ♂ rats with an approx. weigh of ˜250 g were used. Animals were split into 6 groups+1 extra (n=3 for each group). Animals were allowed a 5-day acclimatization period in animal facility. The animal room environment was controlled (temperature 22 f 0.2° C.; relative humidity 55 f 25%; 12 hours light/dark cycle, and 12 air changes per hour). A standard certified commercial rodent chow was provided to the animals ad libitum. Procedures involving the care and use of animals in this study were reviewed and approved by the Institutional Animal Care and Use Committee (IACUC) prior to conduct. One day prior to dosing on D-1, Rats were divided in 6 groups (Table 1). Animals were identified and bled for pre-dose blood. Rats in Group 4, 5 and 6 were fasted overnight (12-14 hours) with access of water.
# On day 0, animals were weighted, and dosed by IV injection or by oral gavage as described in Table 10. Food tray were returned to Group 4, 5 and 6 two hours post dosing.
# (§2) Blood was collected at indicated time points below for all groups: Pre-dose, 5′, 15′, 30′, 1 h, 2 h, 4 h, 6 h, 8 h, 24 h.
# (§3) About 150 μL of blood was collected at indicated time points below using K2EDTA tubes. Blood was kept on ice until centrifugation at 4° C. at 6000 RCF for 10 min. Plasma was collected and kept on dry ice until transferred at −80° C.
# [2] = Pharmacokinetic study 1: P5P and P5P analog 16, IV and PO, rats; assay type: in vivo; conditions: dosed orally, rat
# Procedure: Pharmacokinetic study 1 was carried out (see Example 98: P5P analog 16i: Pharmacokinetic study 1) to assess if P5P analog 16i was able to be converted to P5P and increase plasma P5P, to assess if P5P analog 16i was orally available, and to compare the ability of PO P5P analog 16i and PO P5P to increase plasma P5P.
# (§4) In order to isolate the effects of the administered P5P analog 16i on pyridoxine (PL) and P5P (PLP) levels, the basal levels of both PL and P5P were subtracted from the measured concentrations. Baseline subtraction was accomplished by subtracting pre-dose concentrations of either PL or P5P from the subsequent values in the time course.
# Formulation—Both P5P (pyridoxal-5-phosphate) and P5P analog 16 were formulated in phosphate buffered saline (PBS) as homogenous solutions on the day of dosing.
# Animals and group—13 CD ♂ rats with an approx. weigh of ˜250 g were used. Animals were split into 4 groups+1 extra (n=3 for each group). Animals were allowed a 5-day acclimatization period in animal facility. The animal room environment was controlled (temperature 22 f 0.2° C.; relative humidity 55 f 25%; 12 hours light/dark cycle, and 12 air changes per hour). A standard certified commercial rodent chow was provided to the animals ad libitum. Procedures involving the care and use of animals in this study were reviewed and approved by the Institutional Animal Care and Use Committee (IACUC) prior to conduct. One day prior to dosing on D-1, Rats were divided in 4 groups (Table 7). Rats in Group 3 and 4 were fasted overnight (12-14 hours) with access to water.
# On day 0, animals were identified, weighted, and dosed by intravenous (IV) injection or oral gavage (PO) as described in Table 7. Food tray were returned to Group 3 and 4, 2 hrs post dosing.
# as §2, §3
# plasma enzymes = conditions: Sprague Dawley, rat
# [3] = Single ascending dose study of P5P analog 16, oral, rats; assay type: in vivo; conditions: rat
# Procedure: Single ascending dose studies were carried out (Example 97: P5P analog 16i: single ascending dose study) to assess the maximum tolerability of a P5P analog (compound of formula 16i) in rats under 4 different doses under one single administration via Per Os (P.O.—oral) route, and to inform the linearity of pharmacokinetics (PK) with multiple dosing.
# as §4, with “compound of formula” for “P5P analog”
# Formulation—P5P analog 16 was formulated in 1% methylcellulose in water on the day of dosing.
# as §1, with “group—17” for “group—19”, “4” for “6”, “(n=4” for “(n=3”, “6).” for “1).”, “all groups” for “Group 4, 5 and 6”
# On day 0, animals in groups 1-2-3 were weighed, and dosed by oral gavage as described in Table 6. Each remaining dosing solutions were stirred (or slightly vortexed), a 50 ul sample were collected and placed in separate tube and both vials immediately frozen on dry ice. Food tray were returned to animals two hours post dosing.
# Cage-side observation were done upon dosing, at the end of day, and 24 hrs post dosing (record adverse effect if observed). Animal were weighed again at 24 hrs post dosing.
# Blood was collected at indicated time points for all groups at: Pre-dose, 15′, 30′, 1 h, 2 h, 4 h, 6 h, 8 h, 24 h.
# as §3
Compound,"PLP exposure, racemic D-amino acid prodrug compared with L-amino acid prodrug [1]",conversion to PLP in the plasma [1],"oral availability of the prodrug (crosses gastrointestinal wall, detectable in circulation) [2]",relative P5P formed (plasma enzymes),T1/2 of PL and PLP as dose was increased ([3]; PO 10-300 mg/kg),plasma PL and P5P concentrations with increasing dose ([3]; PO 10-300 mg/kg),dose linearity of plasma PL and PLP (Cmax and AUC) ([3]; PO),signs of toxicity ([3]; highest dose group 300 mg/kg PO),"adverse reactions / clinical signs ([3]; single PO dose 10, 30, 100, 300 mg/kg, observed to 24 hrs)"
"Cc1ncc(COP(=O)(N[C@H](C)C(=O)OC(C)C)Oc2ccccc2)c(C=O)c1O (mixture of isomers) [Compound 16iii, (2R)-Isopropyl 2-(((4-formyl-5-hydroxy-6-methylpyridin-3-yl)methoxy)(phenoxy)phosphorylamino)propanoate]",reduced PLP exposure,did not convert well to PLP,,,,,,,
"Cc1ncc(CO[P@@](=O)(N[C@@H](C)C(=O)OC(C)C)Oc2ccccc2)c(C=O)c1O [Compound 16i, (S)-Isopropyl 2-((S)-((4-formyl-5-hydroxy-6-methylpyridin-3-yl)methoxy)(phenoxy)phosphorylamino)propanoate]",,readily converted to PLP,orally bioavailable,100.0%,increase,clear dose-dependent increase,dose linearity up to 300 mg/kg,did not show any signs of toxicity,no clinical signs were observed
